For the data set, the system named is human maximum recommended daily dose, FDA database. Briefly: DSSTox (FDAMDD) FDA Maximum (Recommended) Daily Dose Database. Particulars: hits give low values. In a few lines: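 MRDD values come from clinical trials with daily oral dosing, usually for 3–12 months, for the average adult, in mg/day converted to mg/kg-bw/day assuming 60 kg. Antineoplastic mg/m2 doses are divided by 37. Activity score maps log10(1/MRDD mmol) onto 1–100.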

[1] abbreviates: TherapeuticCategory: diagnostic aid.
Setting [2] is: TherapeuticCategory: antihypertensive.
Where [3] appears, read: TherapeuticCategory: anticholinergic.
[4] abbreviates: TherapeuticCategory: antibacterial.
Where [5] appears, read: TherapeuticCategory: antipsychotic.
Setting [6] is: TherapeuticCategory: analgesic, anti inflammatory.
[7] abbreviates: TherapeuticCategory: antidiabetic.
Where [8] appears, read: TherapeuticCategory: antiarrhythmic.
The mark [9] stands for this setting: TherapeuticCategory: cardiotonic.
[10] abbreviates: TherapeuticCategory: anti inflammatory.
The mark [11] stands for this setting: TherapeuticCategory: antiamebic.
Where [12] appears, read: TherapeuticCategory: antineoplastic.

Regarding `CN[C@@H]1CCc2[nH]c3ccc(C(N)=O)cc3c2C1`, the maximum recommended daily dose (mmol/kg-bw/day) (TherapeuticCategory: antimigraine) was 0.000514.
As for `CNCC12CCC(c3ccccc31)c1ccccc12`, for the setting “TherapeuticCategory: anxiolytic, skeletal muscle relaxant”, the maximum recommended daily dose (mmol/kg-bw/day) is 0.00401.
Regarding `C[N+](C)(C)CC(O)CC(=O)[O-]` (stereo not drawn), the maximum recommended daily dose (mmol/kg-bw/day) (TherapeuticCategory: antihyperlipoproteinemic) was 0.104.
Consider `CCN(CC)CCC1(c2ccccc2)CCC(=O)NC1=O` (stereo not drawn), for which the maximum recommended daily dose (mmol/kg-bw/day) (TherapeuticCategory: anticholinergic, antiparkinsonian) is 0.00289.
Take `CC(C)CC(N(C)C)C1(c2ccc(Cl)cc2)CCC1` (stereo not drawn): the maximum recommended daily dose (mmol/kg-bw/day) (TherapeuticCategory: anorexic) is 0.000893.
On to `CCC(=O)O[C@]1(C(=O)COC(C)=O)CC[C@H]2[C@@H]3C[C@H](C)C4=CC(=O)C=C[C@]4(C)[C@H]3[C@@H](O)C[C@@]21C`, for which the maximum recommended daily dose (mmol/kg-bw/day) (TherapeuticCategory: glucocorticoid) is 0.00882.
`CC(C)(C)NCC(O)c1ccc(O)c(CO)c1` (stereo not drawn): the maximum recommended daily dose (mmol/kg-bw/day) (TherapeuticCategory: bronchodilator, tocolytic) is 0.00223.
As to `O=C1OC(c2ccc(O)c(S(=O)(=O)O)c2)(c2ccc(O)c(S(=O)(=O)O)c2)c2c(Br)c(Br)c(Br)c(Br)c21`, the maximum recommended daily dose (mmol/kg-bw/day) under setting [1] was 0.00597.
Take `N=C(N)N1CCc2ccccc2C1`: under setting [2], the maximum recommended daily dose (mmol/kg-bw/day) is 0.0285.
Turning to `C=CCOc1ccc(CC(=O)O)cc1Cl`, under “TherapeuticCategory: analgesic, antipyretic, anti inflammatory”, the maximum recommended daily dose (mmol/kg-bw/day) was 0.00737.
Turning to `CC(O)Cn1cnc2c1c(=O)n(C)c(=O)n2C` (stereo not drawn), the maximum recommended daily dose (mmol/kg-bw/day) (TherapeuticCategory: bronchodilator, vasodilator, smooth muscle relaxant) was 0.168.
As to `CN1CCCN=C1COC(=O)C(O)(c1ccccc1)C1CCCCC1` (stereo not drawn), the maximum recommended daily dose (mmol/kg-bw/day) under setting [3] is 0.00145.
With `Clc1ccc(C/C(=C\CN2CCCC2)c2ccccc2)cc1`, the maximum recommended daily dose (mmol/kg-bw/day) (TherapeuticCategory: antihistaminic) is 0.00481.
`CN[C@@H]1[C@H](O[C@H]2[C@H](O[C@H]3[C@H](O)[C@@H](O)[C@H](N=C(N)N)[C@@H](O)[C@@H]3N=C(N)N)O[C@@H](C)[C@]2(O)C=O)O[C@@H](CO)[C@H](O[C@@H]2O[C@H](CO)[C@@H](O)[C@H](O)[C@@H]2O)[C@H]1O`: the maximum recommended daily dose (mmol/kg-bw/day) under setting [4] is 0.0269.
On to `CN1CCN(C2=Nc3cc(Cl)ccc3Nc3ccccc32)CC1`, for which the maximum recommended daily dose (mmol/kg-bw/day) under setting [5] is 0.0459.
On to `OCc1cccnc1`, for which the maximum recommended daily dose (mmol/kg-bw/day) (TherapeuticCategory: vasodilator) is 0.0458.
For `CC(O)C(=O)O` (stereo not drawn), the maximum recommended daily dose (mmol/kg-bw/day) (TherapeuticCategory: acidulant) is 1.11.
Turning to `CS(=O)(=O)c1ccc(C2=C(c3ccccc3)C(=O)OC2)cc1`, under setting [6], the maximum recommended daily dose (mmol/kg-bw/day) is 0.00265.
On to `CCCNC(=O)NS(=O)(=O)c1ccc(Cl)cc1`, for which, under setting [7], the maximum recommended daily dose (mmol/kg-bw/day) was 0.0452.
Regarding `CC(C)[C@H](N)C(=O)OCCOCn1cnc2c(=O)[nH]c(N)nc21`, the maximum recommended daily dose (mmol/kg-bw/day) (TherapeuticCategory: antiviral) is 0.154.
As for `CCOC(=O)Nc1ccc2c(c1)N(C(=O)CCN1CCOCC1)c1ccccc1S2`, the maximum recommended daily dose (mmol/kg-bw/day) under setting [8] was 0.0351.
In the case of `Cc1noc(NS(=O)(=O)c2ccc(N)cc2)c1C`, the maximum recommended daily dose (mmol/kg-bw/day) under setting [4] is 0.25.
As for `Cc1cc(CC(=O)O)n(C)c1C(=O)c1ccc(Cl)cc1`, under setting [6], the maximum recommended daily dose (mmol/kg-bw/day) is 0.0343.
`CC(C)NCC(O)COc1ccc(O)cc1` (stereo not drawn): under setting [9], the maximum recommended daily dose (mmol/kg-bw/day) was 0.00148.
As for `CC(C)(O)c1ccccc1CC[C@@H](SCC1(CC(=O)O)CC1)c1cccc(/C=C/c2ccc3ccc(Cl)cc3n2)c1`, the maximum recommended daily dose (mmol/kg-bw/day) (TherapeuticCategory: antiasthmatic) is 0.000285.
As for `CC1=C(CC(=O)O)c2cc(F)ccc2/C1=C/c1ccc(S(C)=O)cc1` (stereo not drawn), the maximum recommended daily dose (mmol/kg-bw/day) under setting [10] was 0.0187.
`CNCCCC1c2ccccc2C=Cc2ccccc21`: the maximum recommended daily dose (mmol/kg-bw/day) (TherapeuticCategory: antidepressant) is 0.0038.
For `Cc1c(C(=O)O)c(O)cc2c1C(=O)c1c(O)c([C@@H]3O[C@H](CO)[C@@H](O)[C@H](O)[C@H]3O)c(O)c(O)c1C2=O`, the maximum recommended daily dose (mmol/kg-bw/day) (TherapeuticCategory: none) was 0.0169.
As for `CC(C(=O)O)c1ccc(N2CC=CC2)c(Cl)c1` (stereo not drawn), under setting [10], the maximum recommended daily dose (mmol/kg-bw/day) was 0.0528.
With `CO/N=C(\C(=O)N[C@@H]1C(=O)N2C(C(=O)O)=CCS[C@H]12)c1csc(N)n1`, the maximum recommended daily dose (mmol/kg-bw/day) under setting [4] is 0.261.
Turning to `CC(=O)O[C@H]1C[C@H](O[C@H]2[C@@H](O)C[C@H](O[C@H]3[C@@H](O)C[C@H](OC4CC[C@@]5(C)[C@H](CC[C@@H]6[C@@H]5CC[C@]5(C)[C@@H](C7=CC(=O)OC7)CC[C@]65O)C4)O[C@@H]3C)O[C@@H]2C)O[C@H](C)[C@H]1O[C@@H]1O[C@H](CO)[C@@H](O)[C@H](O)[C@H]1O` (stereo partly drawn), the maximum recommended daily dose (mmol/kg-bw/day) under setting [9] was 3.44e-05.
Consider `CC(S)C(=O)NCC(=O)O` (stereo not drawn), for which, where the note is “TherapeuticCategory: hepatoprotectant, mucolytic, antidote to heavy metal poisoning”, the maximum recommended daily dose (mmol/kg-bw/day) is 0.204.
With `O=C1CCC(N2C(=O)c3ccccc3C2=O)C(=O)N1` (stereo not drawn), the maximum recommended daily dose (mmol/kg-bw/day) (TherapeuticCategory: sedative, hypnotic) was 0.0258.
In the case of `CC1=C(C(=O)O)N2C(=O)[C@@H](NC(=O)[C@H](N)c3ccccc3)[C@H]2SC1`, under setting [4], the maximum recommended daily dose (mmol/kg-bw/day) was 0.192.
Same read-out and setting: the same measure for `CCn1nc(C(=O)O)c(=O)c2cc3c(cc21)OCO3`: 0.0637.
Consider `CC[C@H]1CN2CCc3cc(OC)c(OC)cc3[C@@H]2C[C@@H]1C[C@H]1NCCc2cc(OC)c(OC)cc21`, for which the maximum recommended daily dose (mmol/kg-bw/day) under setting [11] was 0.00208.
Take `CCOC(=O)c1cncn1C(C)c1ccccc1` (stereo not drawn): under setting [3], the maximum recommended daily dose (mmol/kg-bw/day) was 0.00246.
With `C[C@@H]1O[C@@H](O[C@@H]2C=C3CC[C@@H]4[C@H](CC[C@]5(C)[C@@H](c6ccc(=O)oc6)CC[C@]45O)[C@@]3(C)CC2)[C@H](O)[C@H](O)[C@H]1O`, the maximum recommended daily dose (mmol/kg-bw/day) under setting [9] is 7.86e-05.
With `O=c1cc[nH]c(=S)[nH]1`, for the setting “TherapeuticCategory: thyroid depressant”, the maximum recommended daily dose (mmol/kg-bw/day) was 0.026.
As for `C[C@H]1O[C@@H](n2cc(F)c(=O)[nH]c2=O)[C@H](O)[C@@H]1O`, the maximum recommended daily dose (mmol/kg-bw/day) under setting [12] is 0.0812.
`O=C(O)C(S)C(S)C(=O)O` (stereo not drawn): for the setting “TherapeuticCategory: antidote for heavy metal poisoning, radioactive imaging agent”, the maximum recommended daily dose (mmol/kg-bw/day) is 0.0549.
On to `Oc1c(I)cc(I)c2cccnc12`, for which, under setting [11], the maximum recommended daily dose (mmol/kg-bw/day) is 0.0756.
Consider `CCCCNC(=O)OCC(C)(CCC)COC(N)=O` (stereo not drawn), for which, where the note is “TherapeuticCategory: anxiolytic”, the maximum recommended daily dose (mmol/kg-bw/day) is 0.182.
For the compound `N[C@@H]1CONC1=O`, under setting [4], the maximum recommended daily dose (mmol/kg-bw/day) was 0.164.
As to `CCCCCCC(=O)O[C@H]1CC[C@H]2[C@@H]3CCc4cc(O)ccc4[C@H]3CC[C@]12C`, where the note is “TherapeuticCategory: estrogen”, the maximum recommended daily dose (mmol/kg-bw/day) is 0.0013.
On to `CNC[C@H](O)c1cccc(O)c1`, for which the maximum recommended daily dose (mmol/kg-bw/day) (TherapeuticCategory: mydriatic, decongestant) is 0.00498.
On to `COC(=O)CCc1ccc(OCC(O)CNC(C)C)cc1` (stereo not drawn), for which the maximum recommended daily dose (mmol/kg-bw/day) under setting [8] was 0.000677.
As for `O=C(O)Cc1sc(-c2ccccc2)nc1-c1ccc(Cl)cc1`, the maximum recommended daily dose (mmol/kg-bw/day) under setting [10] was 0.0455.
For `Cc1cc(C)cc(OCC2CNC(=O)O2)c1` (stereo not drawn), where the note is “TherapeuticCategory: skeletal muscle relaxant”, the maximum recommended daily dose (mmol/kg-bw/day) is 0.484.
`CCN1CCN(C(=O)N[C@@H](C(=O)N[C@@H]2C(=O)N3C(C(=O)O)=C(CSc4nnnn4C)CS[C@H]23)c2ccc(O)cc2)C(=O)C1=O`: the maximum recommended daily dose (mmol/kg-bw/day) under setting [4] is 0.31.
On to `CCOc1ccccc1C(N)=O`, for which the maximum recommended daily dose (mmol/kg-bw/day) (TherapeuticCategory: analgesic) is 0.404.
As to `N#Cc1ccc(C(c2ccc(C#N)cc2)n2cncn2)cc1`, under setting [12], the maximum recommended daily dose (mmol/kg-bw/day) was 0.000146.
Turning to `CCC(COC(=O)c1cc(OC)c(OC)c(OC)c1)(c1ccccc1)N(C)C` (stereo not drawn), the maximum recommended daily dose (mmol/kg-bw/day) (TherapeuticCategory: antispasmodic) is 0.0258.
Consider `O=C(O)c1c(Cl)c(Cl)c(Cl)c(Cl)c1-c1c2cc(I)c(=O)c(I)c-2oc2c(I)c(O)c(I)cc12`, for which the maximum recommended daily dose (mmol/kg-bw/day) under setting [1] is 0.00197.
Take `C/C=C(/CC[C@@H](C)[C@H]1CC[C@H]2C3=CC[C@H]4[C@H](C)[C@@H](O)CC[C@]4(C)[C@H]3CC[C@]12C)C(C)C`: the maximum recommended daily dose (mmol/kg-bw/day) (TherapeuticCategory: anticholinesteremic) was 0.234.
As for `O=C(O)c1cc(=O)c2c(OCC(O)COc3cccc4oc(C(=O)O)cc(=O)c34)cccc2o1`, for the setting “TherapeuticCategory: prophylactic antiasthmatic, antiallergic”, the maximum recommended daily dose (mmol/kg-bw/day) was 0.0284.
For `Cc1ccc(S(=O)(=O)NC(=O)NN2CC3CCCC3C2)cc1` (stereo not drawn), the maximum recommended daily dose (mmol/kg-bw/day) under setting [7] is 0.0165.
Take `CC[C@]1(O)CC[C@H]2[C@@H]3CCC4=CCCC[C@@H]4[C@H]3CC[C@@]21C`: the maximum recommended daily dose (mmol/kg-bw/day) (TherapeuticCategory: anabolic) was 0.000231.
`C=CC[C@]1(O)CC[C@H]2[C@@H]3CCC4=CCCC[C@@H]4[C@H]3CC[C@@]21C`: the maximum recommended daily dose (mmol/kg-bw/day) (TherapeuticCategory: progestogen) was 0.000832.
`CC(=O)N(O)CCCCCNC(=O)CCC(=O)N(O)CCCCCNC(=O)CCC(=O)N(O)CCCCCN`: the maximum recommended daily dose (mmol/kg-bw/day) (TherapeuticCategory: parenteral chelating agent) is 0.178.
Take `CN1CCN(C(c2ccccc2)c2ccccc2)CC1`: the maximum recommended daily dose (mmol/kg-bw/day) (TherapeuticCategory: antiemetic) was 0.0125.
For the compound `NCC(=O)O`, the maximum recommended daily dose (mmol/kg-bw/day) (TherapeuticCategory: none) is 1.33.
Turning to `CC[N+](C)(C)Cc1ccccc1Br`, the maximum recommended daily dose (mmol/kg-bw/day) (TherapeuticCategory: antiadrenergic, cardiac depressant) was 0.0121.
Turning to `CNC1(C)C2CCC(C2)C1(C)C` (stereo not drawn), the maximum recommended daily dose (mmol/kg-bw/day) under setting [2] is 0.00249.
With `COc1ccc(/C=C/C(=O)Nc2ccccc2C(=O)O)cc1OC`, the maximum recommended daily dose (mmol/kg-bw/day) (TherapeuticCategory: antiallergic) was 0.0153.
On to `CC(=O)c1ccc2c(c1)N(CCCN1CCN(CCO)CC1)c1ccccc1S2`, for which, under setting [5], the maximum recommended daily dose (mmol/kg-bw/day) was 0.0243.
With `Nc1nc2ncc(CNc3ccc(C(=O)N[C@@H](CCC(=O)O)C(=O)O)cc3)nc2c(=O)[nH]1`, the maximum recommended daily dose (mmol/kg-bw/day) (TherapeuticCategory: hematopoetic) was 3.01e-05.
Consider `O=C1NC(=O)C(c2ccccc2)(c2ccccc2)N1`, for which the maximum recommended daily dose (mmol/kg-bw/day) (TherapeuticCategory: anticonvulsant, antiepileptic) was 0.0198.

Values taken from PubChem BioAssay AID1195 (EPA DSSTox, 2008).
